Reference: patent US20190008797A1, “ESTROGEN RECEPTOR ALPHA COLIGANDS, AND METHODS OF USE THEREOF” (priority 2016, published 2019)

Legend:
U2OS-ERα cells = assay: Real-time PCR of unique genes FGR, KCNK6, KRT73 in U2OS-ERα cells; type: cell-based, human; conditions: E2 in combination with 5 μM 2′,3′,4′-THC, 24 hrs
Protocol: Expression was assessed by up regulation or down regulation of 3-fold or more and a P-value≤0.05. […] Error bars are ±SEM.
(FIGS. 6a, 6b) Gene expression of (FIG. 6a) KRT73 and (FIG. 6b) NKG2E in U2OS-ERα cells treated with 10 nM estradiol, 5 μM 2′, 3′, 4′-THC, 1μM ICI alone or in combination for 24 hours. […] Error bars are ±SEM. […] After transfection, luciferase activities were measured as described in the Methods. RLU is relative light units and the data shown are mean ±SEM. (FIG. 6c). […] After transfection, luciferase activities were measured as described in the Methods. RLU is relative light units and the data shown are mean ±SEM (FIG. 6d).

NKG2E promoter = assay: ChIP of ERα and SRC-2 at the NKG2E promoter in U2OS-ERα cells; type: cell-based, human; conditions: 2′,3′,4′-THC/E2 combination, 2 hr
Protocol: Cells were fixed with 11X formaldehyde solution for 10 minutes at 37° C. and the reaction was quenched for 2 minutes with 1.25M glycine solution as previously described (Cvoro, A., et al. Distinct Roles of Unliganded and Liganded Estrogen Receptors in Transcriptional Repression. Mol Cell 21, 555-564 (2006)). Cells were washed and collected in collecting buffer (100 mM Tris-HCl pH 9.4 and 10 mM dithiothreitol (DTT)) supplemented with a protease inhibitor cocktail. Pellets were frozen overnight at −80° C. then were thawed on ice and lysed (50 mM Tris pH 7.4, 150 mM NaCl, 10 mM ethylenediaminetetraacetic acid (EDTA), 0.5 mM ethylene glycol tetraacetic acid (EGTA), 0.5% Triton™ X-100 and 1X protease inhibitor cocktail). Cell lysates were centrifuged and cell pellet was resuspended in RIPA buffer. Samples were sonicated and supernatant was collected. Approximately 5% of each sample was taken for input and stored at 4° C. Immune complexes were collected using magnetic sepharose beads (GE Healthcare, Pittsburgh, Pa.) equilibrated in radioimmunoprecipitation assay (RIPA) buffer. Complexes were collected over a period of 3 to 4 hours rotating at 4° C. […]
FIGS. 2a-2f2′, 3′, 4′-THC behaves as a unique coagonist on gene expression in U2OS-ERα cells. […] Expression was assessed by up regulation or down regulation of 3-fold or more and a P-value≤0.05. […]

ERα [1] = target: T1, ERα (Homo sapiens, UniProt P03372); assay: Competitive [3H]-E2 binding in U2OS-ERα cells; design: expressed in transfected cells; host or cells: U2OS
[2] = target: T2, human glucocorticoid receptor (Homo sapiens, UniProt P04150); assay: GRE-TK-Luc reporter, U2OS cells cotransfected with hGR; type: cell-based; conditions: 5 μM + 10 nM dexamethasone, 24 hours
T2 construct: expressed in transfected cells; host or cells: U2OS
T2 sequence (P04150 1-777): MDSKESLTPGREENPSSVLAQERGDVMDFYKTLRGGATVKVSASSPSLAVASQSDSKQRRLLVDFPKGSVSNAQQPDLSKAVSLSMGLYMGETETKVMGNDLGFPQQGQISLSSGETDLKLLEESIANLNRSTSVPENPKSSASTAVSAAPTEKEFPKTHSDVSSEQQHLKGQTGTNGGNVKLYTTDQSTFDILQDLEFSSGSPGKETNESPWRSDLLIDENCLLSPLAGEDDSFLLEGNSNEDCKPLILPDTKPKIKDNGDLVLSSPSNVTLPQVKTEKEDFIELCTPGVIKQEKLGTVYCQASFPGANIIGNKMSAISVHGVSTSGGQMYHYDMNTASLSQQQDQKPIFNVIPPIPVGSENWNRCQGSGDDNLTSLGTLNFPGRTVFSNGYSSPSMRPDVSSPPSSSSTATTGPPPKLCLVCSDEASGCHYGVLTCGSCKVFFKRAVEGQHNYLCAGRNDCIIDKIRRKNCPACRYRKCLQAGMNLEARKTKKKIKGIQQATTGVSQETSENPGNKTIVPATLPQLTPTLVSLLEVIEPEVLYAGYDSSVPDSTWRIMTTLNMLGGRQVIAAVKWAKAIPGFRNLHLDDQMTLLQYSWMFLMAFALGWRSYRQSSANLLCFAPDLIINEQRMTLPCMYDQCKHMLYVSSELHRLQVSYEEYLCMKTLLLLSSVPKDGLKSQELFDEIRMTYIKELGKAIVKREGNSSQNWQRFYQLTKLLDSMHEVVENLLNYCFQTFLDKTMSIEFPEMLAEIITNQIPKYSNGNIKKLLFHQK

ERα [3] = target: T1, ERα; assay: ERE-tk luciferase transfection assay, U2OS cells cotransfected with ERα; type: cell-based; design: expressed in transfected cells; host or cells: U2OS
Protocol: (FIG. 1a) Chemical structure of 2′, 3′, 4′-THC. (FIG. 1b) U2OS cells cotransfected with ERE tk-luciferase and ERα (left panel) or ERβ (right panel). After transfection the cells were treated for 24 hours with 10 nM estradiol and 5 μM 2′, 3′, 4′-THC alone or in combination. Cells were lysed and luciferase activity was measured. RLU is relative light units. Error bars are the Mean±SEM. **P≤0.01. […] The total cellular RNA was extracted and real-time PCR for KRT19 mRNA was performed as described in Materials and Methods. […] Error bars are ±SEM. *P≤0.05, **** P≤0.0001.

T1 sequence (P03372 whole entry): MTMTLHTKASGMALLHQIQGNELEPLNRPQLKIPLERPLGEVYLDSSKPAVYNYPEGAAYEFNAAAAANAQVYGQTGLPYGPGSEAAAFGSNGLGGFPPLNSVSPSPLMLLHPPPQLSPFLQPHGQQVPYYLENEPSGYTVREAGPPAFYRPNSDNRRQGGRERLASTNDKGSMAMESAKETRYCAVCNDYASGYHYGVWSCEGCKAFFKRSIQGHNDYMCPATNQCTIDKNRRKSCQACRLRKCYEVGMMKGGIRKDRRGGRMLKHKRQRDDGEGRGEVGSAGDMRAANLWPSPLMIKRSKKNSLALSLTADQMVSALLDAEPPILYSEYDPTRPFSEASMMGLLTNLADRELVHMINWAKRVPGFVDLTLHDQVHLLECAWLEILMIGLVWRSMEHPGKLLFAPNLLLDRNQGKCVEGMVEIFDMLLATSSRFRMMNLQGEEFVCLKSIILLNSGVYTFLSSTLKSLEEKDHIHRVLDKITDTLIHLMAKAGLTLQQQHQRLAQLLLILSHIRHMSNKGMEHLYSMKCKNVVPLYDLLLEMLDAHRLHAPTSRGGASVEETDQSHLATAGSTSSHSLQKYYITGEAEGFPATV

`O=C(/C=C/c1ccccc1)c1ccc(O)c(O)c1O` [2′, 3′, 4′-THC, 2′, 3′, 4′-trihydroxychalcone] was tested, and the “E2 dose at which FGR expression was induced” value (U2OS-ERα cells) was 0.1 nM, the “E2 dose at which KCNK6 expression was induced” value (U2OS-ERα cells) was 1 nM and the “E2 dose at which KRT73 expression was induced” value (U2OS-ERα cells) was 1 nM. The “recruitment of ERα to the NKG2E promoter” value (NKG2E promoter) was “increased recruitment”, the “recruitment of SRC-2 to the NKG2E promoter” value (NKG2E promoter) was “increased recruitment” and the “competing concentration relative to concentration required for synergy” value (ERα [1]) was 100 fold. For the same compound, the “increase of [3H]-E2 binding” value (ERα [1]; 5 or 10 μM, 5 nM [3H]-E2, 1 h, 37°C) was roughly 2 fold, the “IC50 relative to E2 (higher)” value (ERα [1]; U2OS-ERα cells) was “approximately 10,000 fold” and the “concentration at which the compound competes for [3H]-E2 binding” value (ERα [1]; no competition below, 5 nM [3H]-E2) was 100 µM. The “synergy with receptor agonist” value [2] was “no synergy”, the “luciferase activity with E2” value (ERα [3]; ERα, 5 μM chalcone + 10 nM E2, 24 hours) was “synergistic increase” and the “activity on ERE luciferase, compound alone” value (ERα [3]; U2OS cells transfected with ERα, 5 μM, 24 hours) was “inactive”.
